Laboratory results reported in US20160264616A1, “THERAPEUTIC COMPOUNDS AND METHODS” (priority 2015, published 2016).

Test system: RGS17ΔN:Gαo interaction in HEK293T cells
Test: RGS localization assay, GFP-RGS17ΔN co-transfected with hGαo in HEK293T cells
Type: cell-based, human
Details: for delocalization of RGS17ΔN from the membrane: 100 μM compound
Protocol: HEK293T cells co-transfected with GFP-RGS17FL and human Gαo were treated with UI-5, UI-1590 and […] to determine if the compounds could disrupt the RGS17:Gαo interaction that could drive RGS17 to the membrane. […] To test this hypothesis, we constructed a GFP-RGS17 fusion protein with an N-terminal truncation, removing the cysteine-rich motif. […] As a negative control, we tested a known RGS4 inhibitor (CCG-50014) in this assay against RGS17ΔN (21). […] Finally, to ensure the localization was not due to the GFP tag, pAcGFP vector was co-transfected into HEK293T cells with hGαo. […] Cross-sectional fluorescence intensity analysis was used to quantify the intensity of signal at a cross section of the cell. Average signal at the membrane and in the cytoplasm were calculated and change in signal intensity was assessed between time zero and time final. […] Additionally, the control condition of CCG-50014 was subject to the same analyses as the lead compound.
Twenty four (24) hours prior to plating, assay plates were coated with 30 μl poly-D-lysine per well. Human Embryonic Kidney 293T cells (HEK293T) were plated in to 96 well tissue culture treated glass bottom view plates (Perkin Elmer, Part No. 6005430) at a density of 25K cells per well. 24 hours post seeding, cells were transfected with hGαo in pCDNA 3.1(+), pAcGFPRGS17 FL, pAcGFP RGS17ΔN, empty pAcGFP, hGαo+pAcGFPRGS17 FL, hGαo+pAcGFP RGS17ΔN, or hGαo+empty pAcGFP vector using Lipofectamine 2000 (Life Technologies) as the transfection reagent and according to manufacture protocols. 24 hours post transfection, cell media was removed and replaced with […] serum free, phenol red free DMEM (Life Technologies, Ref No. 31053-028). Cells were then imaged using a Zeiss LSM510 confocal microscope (University of Iowa Central Microscopy Core). Images were analyzed using NIH Image J software and Graphpad Prism 6.
Compounds at 2× final desired concentrations were diluted in serum free, phenol red free DMEM.

SMILES: Cc1ccc(-n2sc(=O)n(Cc3ccc(F)cc3)c2=O)cc1 [CCG-50014, reference compound]
- delocalization of RGS17ΔN from the membrane: No delocalization was observed
- delocalization of RGS17ΔN from the membrane (listed as 50014): did not result in RGS17ΔN delocalization
- change of membrane and cytosolic fluorescence signal (Image J cross-section) (time zero versus time final): no significant change of signal
